# Measured values published in patent US20240319207A1, “METHOD FOR IDENTIFYING T-CELL EPITOPE SEQUENCE, AND APPLICATION OF SAME” (priority 2021, published 2024).
# What was measured:
# [1] = system: human peripheral blood monocyte cells, first type (HLA-DRB1*07:01, 15:02); test: ELISPOT assay for interleukin-4, cell 1; format: cell-based; details: 4×10^5 cells per well, peptide 10 μg/ml, 48 hours, after 13 days culture with peptide 1 μg/ml and IL-2
# Protocol: (§1) There was performed an assay for specifying a peptide that could actually be an antigen from the peptide candidate list obtained up to Example 8. In this example, it was confirmed whether the sequence of the peptide obtained as described above could function as a T cell epitope. Of the 12 highly versatile epitope candidates obtained above, 8 epitope candidates were subjected to an assay using peptides.
# (§2) Human peripheral blood monocyte cells carrying HLA types and showing high binding affinity with 8 peptide sequences in Example 8 were used. Specifically, human peripheral blood monocyte cells carrying the following 2 types of HLA types were purchased from Lonza K.K. (Tokyo, Japan) and used. The HLA types of the first type of human peripheral blood monocyte cells used were HLA-DPA1*01:03, 02:02, HLA-DPB1*04:01, 05:01, HLA-DQA1*01:02, 02:01, HLA-DQB1*03:03, 05:02, and HLA-DRB1*07:01, 15:02. The HLA types of the second type of human peripheral blood monocyte cells were HLA-DPA1*01:03, HLA-DPB1*04:01, 04:02, HLA-DOA1*01:03, 05:05, HLA-DOB1*03:01, 06:03, and HLA-DRB1*13:01,14:06.
# (§3) Cells were cultured in the following manner. […]
# (§4) ELISPOT assays for interferon-γ and interleukin-4 were conducted. […] The number of spots of the color-developed plate was measured by a contract analysis service of M&S TechnoSystems, Inc. (Osaka, Japan).
# [2] = system: human peripheral blood monocyte cells, second type (HLA-DRB1*13:01, 14:06); test: ELISPOT assay for interleukin-4, cell 2; format: cell-based; details: 4×10^5 cells per well, peptide 10 μg/ml, 48 hours, after 13 days culture with peptide 1 μg/ml and IL-2
# Protocol: as §1, §2, §3, §4
# T cells = details: peptide sequence including the TREM sequence (from TCRβ repertoire, Table 12 no) activates T cells to induce interferon-γ; cited from earlier work
Substance,ELISPOT IL-4 cell 1 (number of spots) [1],ELISPOT IL-4 cell 2 (number of spots) [2],IFN-g release (T cells)
7 (QDEKGVTQNGRLITA; listed as Homo sapiens) [compound 7],6,12,
15 (LITMDWTWRFLFVVA; listed as Homo sapiens) [compound 15],,,Positive
